Assay results reported in US10308615B2, “Heterocyclic compounds as inhibitors of Vanin-1 enzyme” (Pfizer Inc., priority 2015, dated 2019).

Key:
[1] = target: T1, human vanin-1 (Homo sapiens (Human), UniProt O95497); assay: Human Vanin-1 Enzyme Assay 3; format: biochemical; conditions: 2 nM human vanin-1, 10 uM substrate, 15 min
Method: Human Vanin-1 Enzyme Assay 3.
(§1) The in vitro assay measures enzymatic cleavage of the fluorescently-labeled vanin substrate, pantetheine 7-amino-4-trifluoromethylcoumarin, by human vanin-1.
(§2) The vanin-1 protein was prepared in-house from a construct expressing the extracellular domain of human vanin-1 (GenBank ID NM_004666) preceded N-terminally by the honey bee melittin signal peptide, a GSG linker sequence, a His6X tag and a FLAG tag. The secreted, soluble enzyme was purified from the conditioned medium from a CHO cell line stably expressing the resulting protein. Enzyme purification was performed through sequential Ni NTA and size-exclusion chromatography steps.
On the day of the assay, dose response plates were prepared by diluting the inhibitors in DMSO at compound concentration 100-fold the final in-assay concentration. Concentration series were prepared by serially diluting in DMSO in a two-fold series for a total of 11 data points. Intermediate compound plates containing compound in 10% DMSO were then created by diluting the compounds 10-fold in assay buffer consisting of 50 mM Tris-HCl pH=8.0, 50 mM KCl, 0.005% Brij-35 and 1.5 mM cysteamine. To begin the assay 3 μL were transferred from the intermediate compound plate to the assay plate.
A working solution of human vanin-1 was prepared by diluting the enzyme stock to 2.5 nM in assay buffer. Next, 24 μL of the vanin-1 working solution were transferred to the assay plate. The enzyme reaction was then initiated by the addition of 3 μL of 100 μM pantetheine 7-amino-4-trifluoromethylcoumarin prepared in 5 uM acetic acid. The final concentrations in the assay were 2 nM human vanin-1 and 10 uM substrate. The final concentration of DMSO was 1%. The assay plates were incubated at room temperature for 15 minutes and before they were read on a Tecan Safire using a 405 nm excitation wavelength and a 505 nm emission wavelength for detection.

[2] = target: T1, human vanin-1; assay: Human Vanin-1 Enzyme Assay 1; format: biochemical; conditions: 25 pM human vanin-1, 50 uM pantetheine 7-amino-4-trifluoromethylcoumarin, 30 min preincubation, 60 min
Method: Human Vanin-1 Enzyme Assay 1.
as §1, §2
The test inhibitors were solubilized in DMSO to a stock concentration of 30 mM. On the day of the assay, dose response plates were prepared by diluting the inhibitors in DMSO at compound concentration 200-fold the final in-assay concentration. Intermediate concentrations were prepared by diluting in DMSO in a four-fold series for a total of 11 data points.
To prepare a working solution of human vanin-1, the enzyme was diluted to 33.3 pM in the assay buffer consisting of 50 mM Tris-HCl pH=8.0, 50 mM KCl, 0.005% Brij-35 and […] cysteamine. To begin the assay 100 nL was transferred from the compound plate to the assay plate. Next, 15 μL of the vanin-1 working solution were transferred to the assay plate. The inhibitor and enzyme were incubated at room temperature for 30 minutes. The enzyme reaction was then initiated by the addition of 5 μL of 200 μM pantetheine 7-amino-4-trifluoromethylcoumarin prepared in assay buffer. The final concentrations in the assay were 25 pM human vanin-1 and 50 uM substrate. The final concentration of DMSO was 0.5%. The assay plates were incubated for 60 minutes and before they were read on a Perkin Elmer EnVision Model 2103 using a 405 nm excitation wavelength and a 510 nm emission wavelength for detection.

T1 sequence (O95497 22-491): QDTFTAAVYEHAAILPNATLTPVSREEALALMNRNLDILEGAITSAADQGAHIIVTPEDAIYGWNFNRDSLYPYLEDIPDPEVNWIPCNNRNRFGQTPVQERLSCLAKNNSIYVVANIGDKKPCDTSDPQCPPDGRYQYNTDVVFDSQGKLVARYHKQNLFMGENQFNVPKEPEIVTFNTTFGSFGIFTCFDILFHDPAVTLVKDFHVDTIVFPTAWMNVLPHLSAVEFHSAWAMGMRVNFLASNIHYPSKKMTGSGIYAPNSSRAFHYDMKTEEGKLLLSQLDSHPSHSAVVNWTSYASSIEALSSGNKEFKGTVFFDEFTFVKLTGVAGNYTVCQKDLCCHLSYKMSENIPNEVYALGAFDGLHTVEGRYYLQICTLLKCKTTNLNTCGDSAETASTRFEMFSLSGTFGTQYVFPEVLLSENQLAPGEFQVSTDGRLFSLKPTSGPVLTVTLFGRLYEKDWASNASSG

| SMILES | IC50 [1] | IC50 [2] |
| --- | --- | --- |
| N#Cc1cccc(C(=O)c2cnc(NC3(c4cccnc4)CC3)nc2)c1 [Example 2, 3-[(2-{[1-(pyridin-3-yl)cyclopropyl]amino}pyrimidin-5-yl)carbonyl]benzonitrile] | 2.1 nM | – |
| O=C(c1cnc(NCc2cccnc2)nc1)c1ccc(F)c(F)c1 [Example 22, (3,4-difluorophenyl){2-[(pyridin-3-ylmethyl)amino]pyrimidin-5-yl}methanone] | 43.7 nM | 93.3 nM |
| N#Cc1cccc(CNc2ncc(C(=O)c3cccc(Cl)c3)cn2)c1 [Example 26, 3-({[5-(3-chlorobenzoyl)pyrimidin-2-yl]amino}methyl) benzonitrile] | 63.2 nM | 4170 nM |
| O=C(c1cnc(NCc2ccc(F)cc2)nc1)c1cccc(Cl)c1 [Example 36, (3-chlorophenyl){2-[(4-fluorobenzyl)amino]pyrimidin-5-yl}methanone] | 31 nM | – |
| N#Cc1ccc(CNc2ncc(C(=O)c3ccc(C(F)(F)F)cc3)cn2)cc1 [Example 50, 4-[({5-[4-(trifluoromethyl)benzoyl]pyrimidin-2-yl}amino)methyl] benzonitrile] | 204 nM | – |
| O=C(c1ccc(C(F)(F)F)cc1)c1cnc(NCc2cccnc2)nc1 [Example 51, {2-[(pyridin-3-ylmethyl)amino]pyrimidin-5-yl}[4-(trifluoromethyl)phenyl]methanone] | 44.9 nM | – |
| O=C(c1ccc(Cl)cc1)c1cnc(NCc2ccc(F)cc2)nc1 [Example 52, (4-chlorophenyl){2-[(4-fluorobenzyl)amino]pyrimidin-5-yl}methanone] | 170 nM | – |
| COc1ccc(CNc2ncc(C(=O)c3ccc(OC)cc3)cn2)cc1 [Example 53, {2-[(4-methoxybenzyl)amino]pyrimidin-5-yl}(4-methoxyphenyl) methanone] | 637 nM | – |
| O=C(c1ccc(C(F)(F)F)cc1)c1cnc(NCc2ccc(F)cc2)nc1 [Example 54, {2-[(4-fluorobenzyl)amino]pyrimidin-5-yl}[4-(trifluoromethyl)phenyl]methanone] | 35.4 nM | – |
| COc1ccc(CNc2ncc(C(=O)c3ccc(C(F)(F)F)cc3)cn2)cc1 [Example 55, {2-[(4-methoxybenzyl)amino]pyrimidin-5-yl}[4-(trifluoromethyl)phenyl]methanone] | < 16.5 nM | – |
| O=C(c1cnc(NCc2ccncc2)nc1)c1cccc(C(F)(F)F)c1 [Example 56, {2-[(pyridin-4-ylmethyl)amino]pyrimidin-5-yl}[3-(trifluoromethyl)phenyl]methanone] | 36.2 nM | – |
| O=C(c1ccc(Cl)cc1)c1cnc(NCc2ccc(Cl)cc2)nc1 [Example 57, {2-[(4-chlorobenzyl)amino]pyrimidin-5-yl}(4-chlorophenyl) methanone] | 889 nM | – |
| O=C(c1cnc(NCc2ccc(OC(F)(F)F)cc2)nc1)c1cccc(C(F)(F)F)c1 [Example 58, (2-{[4-(trifluoromethoxy)benzyl]amino}pyrimidin-5-yl)[3-(trifluoromethyl)phenyl]methanone] | 133 nM | – |
| COc1ccc(C(=O)c2cnc(NCc3ccccn3)nc2)cc1 [Example 60, (4-methoxyphenyl) {2-[(pyridin-2-ylmethyl)amino]pyrimidin-5-yl}methanone] | 89.5 nM | – |
| O=C(c1cnc(NCc2ccc(Cl)cc2F)nc1)c1cccc(C(F)(F)F)c1 [Example 61, {2-[(4-chloro-2-fluorobenzyl)amino]pyrimidin-5-yl}[3-(trifluoromethyl)phenyl]methanone] | 24.9 nM | – |
| COc1ccc(CNc2ncc(C(=O)c3ccc(Cl)cc3)cn2)cc1 [Example 63, (4-chlorophenyl){2-[(4-methoxybenzyl)amino]pyrimidin-5-yl}methanone] | 569 nM | – |
| O=C(c1cnc(NC2(c3cccnc3)CC2)nc1)c1cccc(C(F)(F)F)c1 [Example 71, (2-{[1-(pyridin-3-yl)cyclopropyl]amino}pyrimidin-5-yl)[3-(trifluoromethyl)phenyl]methanone] | 23.8 nM | – |

| SMILES | IC50 [1] | IC50 [2] |
| --- | --- | --- |
| COc1ccc(C(=O)c2cnc(NCc3ccccc3)nc2)cc1 [Example 74, [2-(benzylamino)pyrimidin-5-yl](4-methoxyphenyl) methanone] | 736 nM | – |
| COc1ccc(C(=O)c2cnc(NCc3ccc(OC(F)(F)F)cc3)nc2)cc1 [Example 75, (4-methoxyphenyl) (2-{[4-(trifluoromethoxy)benzyl]amino}pyrimidin-5-yl)methanone] | 617 nM | – |
| N#Cc1ccc(CNc2ncc(C(=O)c3cccc(C(F)(F)F)c3)cn2)cc1 [Example 76, 4-[({5-[3-(trifluoromethyl)benzoyl]pyrimidin-2-yl}amino)methyl] benzonitrile] | 112 nM | – |
| COc1ccc(C(=O)c2cnc(NCc3cccc(C#N)c3)nc2)cc1 [Example 77, 3-({[5-(4-methoxybenzoyl)pyrimidin-2-yl]amino}methyl) benzonitrile] | 998 nM | – |
| O=C(c1cnc(NCc2ccnnc2)nc1)c1cccc(C(F)(F)F)c1 [Example 122, {2-[(pyridazin-4-ylmethyl)amino]pyrimidin-5-yl}[3-(trifluoromethyl)phenyl]methanone] | 601 nM | – |
| N#Cc1cc(Cl)cc(C(=O)c2cnc(NC3(c4cncnc4)CC3)nc2)c1 [Example 146, 3-chloro-5-[(2-{[1-(pyrimidin-5-yl)cyclopropyl]amino}pyrimidin-5-yl)carbonyl] benzonitrile] | – | 26 nM |
| NC(=O)c1cccc(C(=O)c2cnc(NC3(c4cnccn4)CC3)nc2)c1 [Example 147, 3-[(2-{[1-(pyrazin-2-yl)cyclopropyl]amino}pyrimidin-5-yl)carbonyl] benzamide] | – | 55.7 nM |
| O=C(O)c1cccc(C(=O)c2cnc(NC3(c4cncnc4)CC3)nc2)c1 [Example 148, 3-[(2-{[1-(pyrimidin-5-yl)cyclopropyl]amino}pyrimidin-5-yl)carbonyl] benzoic acid] | – | 260 nM |
| NC(=O)c1cccc(C(=O)c2cnc(NC3(c4cncnc4)CC3)nc2)c1 [Example 149, 3-[(2-{[1-(pyrimidin-5-yl)cyclopropyl]amino}pyrimidin-5-yl)carbonyl] benzamide] | – | 25.6 nM |
| O=C(O)Cc1cccc(C(=O)c2cnc(NC3(c4cncnc4)CC3)nc2)c1 [Example 150, {3-[(2-{[1-(pyrimidin-5-yl)cyclopropyl]amino}pyrimidin-5-yl)carbonyl]phenyl}acetic acid] | – | 23.9 nM |
| N#Cc1cccc(C(=O)c2cnc(NC3(c4cnc(N)cn4)CC3)nc2)c1 [Example 151, 3-[(2-{[1-(5-aminopyrazin-2-yl)cyclopropyl]amino}pyrimidin-5-yl)carbonyl] benzonitrile] | – | 27.8 nM |
| N#Cc1cccc(C(=O)c2cnc(NC3(c4ccc(C(N)=O)nc4)CC3)nc2)c1 [Example 152, 5-(1-{[5-(3-cyanobenzoyl)pyrimidin-2-yl]amino}cyclo-propyl)pyridine-2-carboxamide] | – | 77.7 nM |
| N#Cc1cccc(C(=O)c2cnc(NC3(c4ccc(O)nc4)CC3)nc2)c1 [Example 153, 3-[(2-{[1-(6-hydroxypyridin-3-yl)cyclopropyl]amino}pyrimidin-5-yl)carbonyl] benzonitrile] | – | 307 nM |
| COc1ccc(COc2ncc(C(=O)c3cccc(C(F)(F)F)c3)cn2)cc1 [Example 157, {2-[(4-methoxybenzyl)oxy]pyrimidin-5-yl}[3-(trifluoromethyl)phenyl]methanone] | > 2340 nM | – |
| O=C(c1cnc(OCc2ccc(OC(F)(F)F)cc2)nc1)c1cccc(C(F)(F)F)c1 [Example 158, (2-{[4-(trifluoromethoxy)benzyl]oxy}pyrimidin-5-yl)[3-(trifluoromethyl)phenyl]methanone] | > 2890 nM | – |
| COc1ccc(C(=O)c2cnc(NC3(c4cncnc4)CC3)nc2)cc1C#N [Example 161, 2-methoxy-5-[(2-{[1-(pyrimidin-5-yl)cyclopropyl]amino}pyrimidin-5-yl)carbonyl] benzonitrile] | – | 1850 nM |
| N#Cc1cccc(C(=O)c2cnc(NCC3CCC(O)CC3)nc2)c1 (stereo not drawn) [Example 162, 3-[(2-{[(4-hydroxycyclohexyl)methyl]amino}pyrimidin-5-yl)carbonyl] benzonitrile] | – | 72.6 nM |
